# US20060287383A1, “Substance exhibiting antidepressant property” (priority 2003, published 2006)
# Legend:
# [1] = test system: white outbred male rats; assay: Porsolt method of behavioral despair (helplessness); type: in vivo; settings: for Time of immobility: 10 minutes observation
# Source text: The Porsolt method of behavioral despair (helplessness) (Porsolt R. D., Anton G., Blavet N. et al. Behavioral despair in rats: a new model sensitive to antidepressant treatment//Europ. J. Pharmacol. 1978—v. 47.—p. 379-391) is the basic model for assessing antidepressants (Andreeva N. I., ? H. ? . the Methodical Guidelines for Studying Antidepressant Activity of Pharmaceuticals,//Guidebook for Experimental (Preclinical) Studies of New Pharmaceuticals of the RF Ministry of Public Health.—ZAO IIA “Remedium”.—2000.—p. 121-125). The studies have been conducted on white outbred male rats having the weight of 230-250 grams. The animals have been put into a water reservoir having 40 cm in diameter and the depth of 60 cm, for the rats cannot either run out of the reservoir or find a support in it. The water temperature has been maintained at the level of 25° C., the experiments have been conducted within the period from 12 A.M. to 4 P.M. After coming into water the animals begin displaying energetic motion activity aimed at finding a way out of the aversive (troublesome) situation, but then they stop their attempts and take a typical position in the water, while being fully immovable or making insignificant motions necessary for keeping their heads over the water surface. The depressive condition intensity rate in this test is the duration of immobility. The immobility condition has been assessed visually, determining its duration within 10 minutes of the observations. Substances having antidepressant activity alleviate this condition by reducing the immobility time.
# The studies have been conducted using animals divided into groups. The animals from the experimental groups have received single doses of phenotropyl in the amounts of 25, 50 and 100 mg/kg or the standard amitriptyline medication in the amount of 10 mg/kg (ampoule solution made by Spofa, the Czech Republic) in the volume corresponding to the dose. The animals from the control group have received distilled water in the same dosage. All the substances have been given intragastrically 40 minutes before the an experiment.
# [2] = test system: patients having depressive illnesses; assay: clinical study, Hamilton rating scale for depressive illness; type: in vivo, human
# Experimental: The Hamilton rating scale for primary depressive illness (Hamilton M. Development of a rating scale for primary depressive illness//Br J Soc Clin Psychol. 1967 December;6(4):278-96) is one of the most widely used scales for assessing depression in the clinical practice.
# The material for clinical studies has comprised two homogenous groups of patients having depressive illnesses (40 persons) aged 20-42, out of which 20 patients have taken amitriptyline in the daily dose of 75 mg (25 mg three times a day), and 20 patients have taken phenotropyl in the daily dose of 100 mg as a single dose in the morning time. For a comparative study of the medications antidepressant activity the patients have been enlisted for the study according to the following criteria: the informed consent is available, a light or moderate depressive episode (F32.0 ? F32.1 according to MCB-10) is present, the total score under the Hamilton rating scale is not lower than 18, no contraindications to taking amitriptyline and phenotropyl. The patients have been relatively uniformly assigned to the said groups according to meaningful factors, such as sex and age, time for which the condition exists and syndrome characteristics. The condition existence time varied from 1 to 2 years. The therapy efficiency has been assessed on the basis of a degree of reduction of the total score under the Hamilton scale, namely: full effect—reduction by more than 50%; partial reduction—from 25 to 50%; no effect—reduction by less than 25%. The condition of the patients has been assessed during the background studies and at each 7th day of the therapy for the whole 6 weeks of the therapy. In total, seven examinations have been carried out. The comparative data on the general efficiency pf the medications, as given in Table 5, evidence a rather quick reduction of the depressive illness psychopathological symptoms in the process of administering phenotropyl and amitriptyline. However, the antidepressant effect of phenotropyl has been more pronounced on the 7th and 14th days of the therapy. The full reduction has been attained in 25% and 40% of the patients, respectively. […] From the 28th day of the therapy the number of the patients experiencing the maximum effect has not been changed either on the 35th or the 42nd days of the therapy. Out of 20% of the patients experiencing a partial reduction of the depressive symptoms, 15% have been patients with the reduction from 25% to 50%, and 5%—patients with the reduction by less than 25%.
compound,measurement,setting,value
"NC(=O)CN1CC(c2ccccc2)CC1=O (stereo not drawn) [Phenotropyl, N-carbamoyl-methyl-4-phenyl-2-pyrrolidone]",reduction in the time of immobility as compared to the control group,[1]; doses of 50 and 100 mg/kg,1.6 times
same,Time of immobility,[1]; single dose 25 mg/kg intragastrically 40 minutes before,275.5 ± 84.2 s
same,Time of immobility,[1]; single dose 50 mg/kg intragastrically 40 minutes before,185.7 ± 49.5 s
same,Time of immobility,[1]; single dose 100 mg/kg intragastrically 40 minutes before,158.4 ± 43.2 s
same,antidepressant effect in behavioral despair test,[1]; single doses of 50 and 100 mg/kg,pronounced antidepressant effect
same,sedative and cholinergic effects,"[2]; 100 mg daily, 6 weeks of therapy",no cases of sedative and cholinergic effects have been recorded
same,"time at which full reduction is attained in 70% and 80% of the patients, compared with amitriptyline","[2]; 100 mg daily, 21st and 28th days of the therapy",two weeks earlier than for the amitriptyline therapy
same,patients (%) with reduction of total Hamilton score 25-49,"[2]; 7th therapy day, 100 mg daily",25%
same,patients (%) with reduction of total Hamilton score <25,"[2]; 7th therapy day, 100 mg daily",75%
same,patients (%) with reduction of total Hamilton score ≧50,"[2]; 7th therapy day, 100 mg daily",0%
same,patients (n) with reduction of total Hamilton score 25-49,"[2]; 7th therapy day, 100 mg daily",5
same,patients (n) with reduction of total Hamilton score <25,"[2]; 7th therapy day, 100 mg daily",15
same,patients (n) with reduction of total Hamilton score ≧50,"[2]; 7th therapy day, 100 mg daily",0
same,patients (%) with reduction of total Hamilton score ≧50,"[2]; 7th therapy day, 100 mg daily, listed as phenotropyl",25%
same,patients (%) with reduction of total Hamilton score 25-49,"[2]; 14th therapy day, 100 mg daily",30%
same,patients (%) with reduction of total Hamilton score <25,"[2]; 14th therapy day, 100 mg daily",30%
same,patients (%) with reduction of total Hamilton score ≧50,"[2]; 14th therapy day, 100 mg daily",40%
same,patients (n) with reduction of total Hamilton score 25-49,"[2]; 14th therapy day, 100 mg daily",6
same,patients (n) with reduction of total Hamilton score <25,"[2]; 14th therapy day, 100 mg daily",6
same,patients (n) with reduction of total Hamilton score ≧50,"[2]; 14th therapy day, 100 mg daily",8
same,patients (%) with reduction of total Hamilton score 25-49,"[2]; 21st therapy day, 100 mg daily",10%
same,patients (%) with reduction of total Hamilton score <25,"[2]; 21st therapy day, 100 mg daily",20%
same,patients (%) with reduction of total Hamilton score ≧50,"[2]; 21st therapy day, 100 mg daily",70%
same,patients (n) with reduction of total Hamilton score 25-49,"[2]; 21st therapy day, 100 mg daily",2
same,patients (n) with reduction of total Hamilton score <25,"[2]; 21st therapy day, 100 mg daily",4
same,patients (n) with reduction of total Hamilton score ≧50,"[2]; 21st therapy day, 100 mg daily",14
same,patients (%) with reduction of total Hamilton score 25-49,"[2]; 28th therapy day, 100 mg daily",15%
same,patients (%) with reduction of total Hamilton score <25,"[2]; 28th therapy day, 100 mg daily",5%
same,patients (%) with reduction of total Hamilton score ≧50,"[2]; 28th therapy day, 100 mg daily",80%
same,patients (n) with reduction of total Hamilton score 25-49,"[2]; 28th therapy day, 100 mg daily",3
same,patients (n) with reduction of total Hamilton score <25,"[2]; 28th therapy day, 100 mg daily",1
same,patients (n) with reduction of total Hamilton score ≧50,"[2]; 28th therapy day, 100 mg daily",16
same,patients (%) with reduction of total Hamilton score 25-49,"[2]; 35th therapy day, 100 mg daily",15%
same,patients (%) with reduction of total Hamilton score <25,"[2]; 35th therapy day, 100 mg daily",5%
same,patients (%) with reduction of total Hamilton score ≧50,"[2]; 35th therapy day, 100 mg daily",80%
same,patients (n) with reduction of total Hamilton score 25-49,"[2]; 35th therapy day, 100 mg daily",3
same,patients (n) with reduction of total Hamilton score <25,"[2]; 35th therapy day, 100 mg daily",1
same,patients (n) with reduction of total Hamilton score ≧50,"[2]; 35th therapy day, 100 mg daily",16
same,patients (%) with reduction of total Hamilton score 25-49,"[2]; 42nd therapy day, 100 mg daily",15%
same,patients (%) with reduction of total Hamilton score <25,"[2]; 42nd therapy day, 100 mg daily",5%
same,patients (%) with reduction of total Hamilton score ≧50,"[2]; 42nd therapy day, 100 mg daily",80%
same,patients (n) with reduction of total Hamilton score 25-49,"[2]; 42nd therapy day, 100 mg daily",3
same,patients (n) with reduction of total Hamilton score <25,"[2]; 42nd therapy day, 100 mg daily",1
same,patients (n) with reduction of total Hamilton score ≧50,"[2]; 42nd therapy day, 100 mg daily",16
same,tolerance and withdrawal syndrome,[2]; course administration,does not induce tolerance and the withdrawal syndrome
